# Data taken from PubChem BioAssay AID463074 (Broad Institute, 2010).
# Active and inactive are the calls of the source.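 Rule for the calls: active = AC50 no more than tenfold above the top dose tested, or full inhibition at every dose with a flat fit (cut at about 19 µM in these data); inconclusive = flat curve fit with inhibition between 30% and 70%, or poor fit; inactive = AC50 more than tenfold above the top dose tested.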
# Test system: HMLE_sh_eGFP viability, CellTiter-Glo luminescence, 72 h
# Assay: cytotoxicity in HMLE control line with eGFP shRNA, dose response, counter-screen for HMLE_sh_ECad selective toxicity project, cell-based, HMLE_sh_eGFP, luminescence (AID 463074);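 note: counterscreen control line to flag general toxicity for the HMLE_sh_ECad screen; potency for loss of viability as luminescence drops below DMSO wells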
row,SMILES,AC50
1,CCOC(=O)c1cnc2ccc(OCC)cc2c1NCc1ccccc1OC,4.7 µM
2,CCn1c(=O)c(C(=O)NCc2ccccc2OC)c(O)c2ccccc21,17.4 µM
3,O=c1[nH]c(=O)n(CCC2=CCCCC2)c(O)c1/C=N/Nc1ccccc1,3.76 µM
4,Nc1ncnc2c1c(-c1ccc(Oc3ccccc3)cc1)cn2C1CCCC1,1.7 µM
5,Cc1cc2nnc(SCC(=O)NCc3ccco3)n2c2ccccc12,4.5 µM
6,CCCCc1ccc(NC(=O)CSc2nc(=O)n(CCN(CC)CC)c3c2CCC3)cc1,9.97 µM
7,CCc1cc2cc(C)cc(C)c2nc1SCC(=O)N1CCN(C(=O)c2ccco2)CC1,13.4 µM
8,CNC(=O)NC(=O)C(C)OC(=O)c1c2c(nc3ccccc13)/C(=C/c1cccs1)CC2 (stereo not drawn),4.01 µM
9,Cc1cccc(-n2cc(CN(C)Cc3nccn3C)c(-c3cccc(F)c3)n2)c1,15.5 µM
10,COc1ccc(C(=O)CSc2nnc(CN3CCCCC3)n2-c2ccc(Cl)cc2)cc1OC,9.46 µM
11,O=C(/C=C/c1ccc2c(c1)OCO2)Nc1nc(-c2ccccc2)cs1,0.781 µM
12,O=C(N/N=C/c1cn(-c2cccs2)nc1-c1ccccc1)c1ccc(O)cc1,7.76 µM
13,Cn1c(-c2ccsc2)c(-c2cccs2)c2cc(Br)ccc21,5.92 µM
14,CCCCCCCCCCCCN1[C@@H](CC(C)=O)c2cc(F)ccc2S1(=O)=O,10 µM
15,C=CCOc1cccc(/C=C2\C(=O)N(Cc3ccc(C)cc3)C(C)=C2C(=O)OC)c1,7.24 µM
16,COc1ccc(-c2cc(C(=O)N3CC4(C)CC3CC(C)(C)C4)no2)cc1 (stereo not drawn),1.43 µM
17,CSc1c(SCc2ccccc2)cnn(-c2ccccc2)c1=O,5.71 µM
18,Cn1c(/C(C#N)=C(\O)COc2ccc3ccccc3c2)nc2ccccc21,0.359 µM
19,COc1cc(CNC(C)(C)CO)cc(Br)c1OCc1ccc(Cl)cc1Cl,6.07 µM
20,COc1ccc(C(=O)C2CCCN(Cc3cc(C)c(O)c(C)c3)C2)c(OC)c1 (stereo not drawn),4.9 µM
21,CCCNCC1C(Oc2ccc(Cl)cc2Cl)C(=O)N1c1cccc(C)c1C (stereo not drawn),7.2 µM
22,COc1cc(/C=C/C(=O)c2ccc(NS(=O)(=O)c3ccc(C)cc3)cc2)cc(OC)c1O,4.11 µM
23,CC1(C)Cc2ccccc2/C(=C/C(=O)c2ccccc2)N1,7.27 µM
24,COc1ccc(CCNc2cc(C)nc3c(-c4ccc(Cl)cc4)c(C)nn23)cc1OC,3.62 µM
25,Oc1ccc(C[C@@H]2CNC(=S)N2CCCCC2CCCCC2)cc1,6.13 µM
26,Clc1ccc(C(c2ccccc2Cl)C(Cl)Cl)cc1 (stereo not drawn),6.32 µM
27,Cc1ccc(-c2csc(NCCn3c(-c4ccncc4)nc4cc(C(F)(F)F)ccc43)n2)cc1,10.7 µM

row,SMILES,AC50
1,CC(C)(C)c1ccc(C(=O)NCCCN2CCN(CCCNC(=O)c3ccc(C(C)(C)C)cc3)CC2)cc1,3.25 µM
2,C/C(=N\N=C(/N)SC1CC(=O)N(c2ccc(Cl)c(Cl)c2)C1=O)c1cccs1 (stereo not drawn),7.3 µM
3,OC(CNCCc1ccc(C(F)(F)F)cc1)COc1ccc2ccccc2c1 (stereo not drawn),4.98 µM
4,C(=N\Nc1ncnc2sc3c(c12)CCC3)/c1cccs1,7.4 µM
5,COc1ccc2c(c1)CCc1c(C(=O)N3CC4(C)CC3CC(C)(C)C4)noc1-2 (stereo not drawn),< 0.16 µM
6,COc1ccccc1-c1oc2ccccc2c1C#CC1(N)CCCCC1,6.39 µM
7,COCCNC(=O)CN(C(=O)CCC(=O)Nc1ccccn1)c1ccc(C)cc1,> 19.5 µM (inactive)
8,COc1ccc(C(=O)/C=C/c2cc(OC)c(O)c(OC)c2)c(F)c1,12.3 µM
9,O=C(Nc1ccc2c(c1)OCO2)c1cc(-c2ccc(O)cc2)on1,1.33 µM
10,Cc1ccc(C)c(NC(=O)c2cc(-c3ccccc3)nn2-c2ccccc2)c1,6.27 µM
11,CCCCCCOc1ccc(/C(C)=N/NC2=NCCN2)cc1[N+](=O)[O-],3.69 µM
12,O=C(CCSc1nc2ccccc2s1)N/N=C/c1c(O)ccc2ccccc12,16.2 µM
13,COc1cc(Cl)c(NC2=CC(=O)C(=O)c3ccccc32)c(OC)c1,3.57 µM
14,CNC(=O)C1C(=S)NC(N)=C(C#N)C1c1ccccc1 (stereo not drawn),> 19.5 µM (inactive)
15,C/C(=N\Nc1ccccc1)c1c(O)n(C)c(=O)n(C)c1=O,4.05 µM
16,CN1CCN(c2ccc(NC(=O)c3ccc(C#N)cc3F)cc2Cl)CC1,19.7 µM
17,COc1cc(/C=C2/CCC/C(=C\c3cc(O)c(OC)c(Cl)c3)C2=O)cc(Cl)c1O,0.768 µM
18,CCN(CC)CCCNC(=S)N1CCN(c2nc(-c3ccc(F)cc3)cs2)CC1,2.44 µM
19,C=CCC[C@H](Cc1ccc(F)cc1)C(=O)O[C@H](CNC(=O)[C@@H](CC=C)CC(=O)N(CCO)Cc1ccccc1)c1ccccc1,7.4 µM
20,CN(C)/N=C/C=C1\CCC/C(=C\c2ccc(F)c(F)c2)C1=O,10.5 µM
21,Cc1ccc(S(=O)(=O)Nc2ccc(-c3nnc(SCc4ccccc4Cl)o3)cc2)cc1,5.7 µM
22,CN(C(=O)COC(=O)/C=C/c1cccc([N+](=O)[O-])c1)C1CCS(=O)(=O)C1 (stereo not drawn),4.61 µM
23,CC1(c2ccc(O)cc2)NC(=O)N(c2ccccc2)N1 (stereo not drawn),8.69 µM
24,Cc1ccc(NC2=C(Cl)C(=O)c3ccccc3C2=O)cc1,1.95 µM
25,OCCN(CCO)CC(O)COc1ccc(C23CC4CC(CC(C4)C2)C3)cc1 (stereo not drawn),0.493 µM
26,N#Cc1ccc(Nc2nc(-c3ccc(O)cc3O)cs2)cc1C(F)(F)F,3.87 µM
